Data set [1] has as its system A549. Kind of data set: Cytotoxicity against human A549 cells assessed as reduction in cell viability after 24 hrs by MTT assay. The settings on record: A549, 24 h. The data set is classed as functional, cell-based.
The test system of data set [2] is NCI-H1299. Description: Cytotoxicity against human NCI-H1299 cells assessed as reduction in cell viability after 24 hrs by MTT assay. The data set is classed as functional, cell-based. Particulars: NCI-H1299, 24 h. Background: Tetrazolium assays rely on reduction of a dye to a coloured formazan, in cell work by metabolically active cells.
The next data set concerns NCI-H292. Kind of data set: Cytotoxicity against human NCI-H292 cells assessed as reduction in cell viability after 24 hrs by MTT assay. The data set is classed as functional, cell-based. The settings on record: NCI-H292, 24 h.
In another data set the test system is NCI-H460. Description: Cytotoxicity against human NCI-H460 cells assessed as reduction in cell viability after 24 hrs by MTT assay. The data set is classed as functional, cell-based. Particulars: NCI-H460, 24 h.
The test system of the next data set is HUVEC. Kind of data set: Cytotoxicity against HUVEC assessed as reduction in cell viability after 24 hrs by MTT assay. The data set is classed as cell-based. Particulars: Homo sapiens.
The nature of data set [3]: Cytotoxicity against human LL24 cells assessed as reduction in cell viability after 24 hrs by MTT assay. The data set is classed as cell-based. The settings on record: LL24, 24 h.
Data set [4] can be described thus: Selectivity index, ratio of IC50 for HUVEC to IC50 for human A549 cells. Type of data set: toxicity. The settings on record: HUVEC versus A549 cells, read-out: Ratio IC50.
Data set [5] is described as follows: Selectivity index, ratio of IC50 for HUVEC to IC50 for human NCI-H1299 cells. The settings on record: HUVEC versus NCI-H1299 cells, read-out: Ratio IC50. The data set is classed as toxicity.
Data set [6] is described as follows: Selectivity index, ratio of IC50 for HUVEC to IC50 for human NCI-H292 cells.
The nature of data set [7]: Selectivity index, ratio of IC50 for human LL24 cells to IC50 for human A549 cells.
A short description of data set [8]: Selectivity index, ratio of IC50 for human LL24 cells to IC50 for human NCI-H1299 cells.
Data set [9] can be described thus: Selectivity index, ratio of IC50 for human LL24 cells to IC50 for human NCI-H292 cells.
A short description of data set [10]: Selectivity index, ratio of IC50 for HUVEC to IC50 for human NCI-H460 cells. The settings on record: HUVEC versus NCI-H460 cells, read-out: Ratio IC50. Type of data set: toxicity.
Data set [11] in a line: Selectivity index, ratio of IC50 for human LL24 cells to IC50 for human NCI-H460 cells.
Data set [12] concerns A549. Description: Cytostatic activity against human A549 cells assessed as inhibition of colony formation after 24 hrs measured after 10 days by crystal violet staining based method. The data set is classed as functional, cell-based.
For data set [13], the system named is NCI-H1299. Kind of data set: Cytostatic activity against human NCI-H1299 cells assessed as inhibition of colony formation after 24 hrs measured after 10 days by crystal violet staining based method. Type of data set: functional, cell-based.
In data set [14] the test system is A549. Kind of data set: Cell cycle arrest in human A549 cells assessed as accumulation at G0/G1 phase at 100 uM after 24 hrs by propidium iodide staining based flow cytometry (reference value: 33.4%). Type of data set: functional. Background: A flow cytometer gives signals particle by particle.
Data set [15] has as its system A549. Kind of data set: Cell cycle arrest in human A549 cells assessed as accumulation at G0/G1 phase at 75 uM after 24 hrs by propidium iodide staining based flow cytometry (reference value: 33.4%). The data set is classed as functional.
Data set [16] relates to A549. Description: Cell cycle arrest in human A549 cells assessed as accumulation at G0/G1 phase at 50 uM after 24 hrs by propidium iodide staining based flow cytometry (reference value: 33.4%). The data set is classed as functional.
Data set [17] has as its system A549. Kind of data set: Cell cycle arrest in human A549 cells assessed as accumulation at G0/G1 phase after 24 hrs by propidium iodide staining based flow cytometry. Type of data set: functional.
Data set [18] relates to A549. Description: Cell cycle arrest in human A549 cells assessed as decrease in S phase at 50 to 100 uM after 24 hrs by propidium iodide staining based flow cytometry. Type of data set: functional.
Data set [19] concerns A549. Kind of data set: Cell cycle arrest in human A549 cells assessed as decrease in G2/M phase at 50 to 100 uM after 24 hrs by propidium iodide staining based flow cytometry. Type of data set: functional.
The test system of data set [20] is NCI-H1299. Description: Cell cycle arrest in human NCI-H1299 cells assessed as accumulation at G0/G1 phase at 100 uM after 24 hrs by propidium iodide staining based flow cytometry (reference value: 39%). The data set is classed as functional.
In data set [21] the test system is NCI-H1299. Description: Cell cycle arrest in human NCI-H1299 cells assessed as accumulation at G0/G1 phase at 75 uM after 24 hrs by propidium iodide staining based flow cytometry (reference value: 39%). Type of data set: functional.
Data set [22] relates to NCI-H1299. Description: Cell cycle arrest in human NCI-H1299 cells assessed as accumulation at G0/G1 phase at 50 uM after 24 hrs by propidium iodide staining based flow cytometry (reference value: 39%). The data set is classed as functional.
The test system of data set [23] is NCI-H1299. Description: Cell cycle arrest in human NCI-H1299 cells assessed as accumulation at G0/G1 phase after 24 hrs by propidium iodide staining based flow cytometry. The data set is classed as functional.
Data set [24] deals with NCI-H1299. Kind of data set: Cell cycle arrest in human NCI-H1299 cells assessed as accumulation at S phase at 100 uM after 24 hrs by propidium iodide staining based flow cytometry (reference value: 7.8%). Type of data set: functional.
In data set [25] the test system is NCI-H1299. Kind of data set: Cell cycle arrest in human NCI-H1299 cells assessed as accumulation at S phase at 75 uM after 24 hrs by propidium iodide staining based flow cytometry (reference value: 7.8%). The data set is classed as functional.
The subject of data set [26] is NCI-H1299. Description: Cell cycle arrest in human NCI-H1299 cells assessed as accumulation at S phase at 50 uM after 24 hrs by propidium iodide staining based flow cytometry (reference value: 7.8%). The data set is classed as functional.

The source made the active and inactive calls. The calls are words filed in the database; no cut-off is given here. A value given as a limit tells only on which side of the number the result lay.

As a reminder, the IC50 is the concentration needed to halve the response being measured. `COc1ccc(CNCc2ccc3c(c2)OCO3)cc1O`: the IC50 (in the data set with A549 [1]; in the data set on NCI-H1299 [2]; in the data set with NCI-H292; with NCI-H460; with HUVEC; in data set [3]) was > 200 µM in each case.

In the case of `COc1ccc(CNCc2ccc3c(c2)OCO3)cc1.Cl`, the IC50 in the data set on A549 [1] was 124 µM; with NCI-H1299 [2], 73.7 µM; in the data set with NCI-H292, 153 µM; with NCI-H460 it was > 200 µM; with HUVEC it was > 200 µM; in [3], > 200 µM. In addition, the selectivity ratio is > 1.61 in [4] and > 2.71 in [5]. Besides, the “Ratio IC50” value in data set [6] is on record as >1.31; in data set [7], >1.61; in [8] it was >2.71; in [9], >1.31.

On to `COc1ccc(CNCc2ccc3c(c2)OCO3)cc1OC.Cl`, for which the IC50 in the data set with A549 [1] is 118 µM; in the data set on NCI-H1299 [2] it was 92.3 µM; in the data set on NCI-H292 it was > 200 µM; in the data set with NCI-H460, > 200 µM; with HUVEC it was > 200 µM; in data set [3], > 200 µM. The results for the selectivity ratio in [4] and in [5] were > 1.69 and > 2.17, respectively. Also, the “Ratio IC50” value in data set [7] is given as >1.69; in data set [8], >2.17.

Regarding `CN(Cc1ccccc1)Cc1ccc2c(c1)OCO2.Cl`, the IC50 is > 200 µM in the data set with A549 [1]; 91.2 µM in the data set with NCI-H1299 [2]; > 200 µM in the data set on NCI-H292; > 200 µM with NCI-H460; > 200 µM with HUVEC; > 200 µM in [3]. In addition, the selectivity ratio in [5] was > 2.19. For the same compound, the “Ratio IC50” value in data set [8] is on record as >2.19.

With `COc1ccc2c(c[n+](C)c3c4cc5c(cc4ccc23)OCO5)c1OC` [CHELERYTHRINE], the IC50 in the data set on A549 [1] was 7.73 µM; in the data set on NCI-H1299 [2], 4.28 µM; with NCI-H292, 4.96 µM; with NCI-H460 it was 5.14 µM; with HUVEC, 4.93 µM; in data set [3] it was 3.73 µM. Also, the figures for the selectivity ratio in [4], in [5] and in [10] were 0.64, 1.15 and 0.96, respectively. Besides, the “Ratio IC50” value is listed as 0.99 in data set [6]; 0.48 in data set [7]; 0.87 in data set [8]; 0.75 in data set [9]; 0.73 in data set [11].

On to `COc1cc(CNCc2ccc3c(c2)OCO3)cc(OC)c1OC.Cl`, for which the IC50 with A549 [1] is > 200 µM; in the data set on NCI-H1299 [2], 107 µM; in the data set on NCI-H292 it was > 200 µM; with NCI-H460, > 200 µM; in the data set with HUVEC it was > 200 µM; in data set [3], > 200 µM. For the same compound, the selectivity ratio in [5] is > 1.88. The “Ratio IC50” value in data set [8] is reported as >1.88.

On to `COc1ccc(CN(C)Cc2ccc3c(c2)OCO3)cc1.Cl`, for which the IC50 in the data set with A549 [1] is > 200 µM; in the data set on NCI-H1299 [2] it was 76.4 µM; in the data set on NCI-H292, > 200 µM; with NCI-H460, > 200 µM; in the data set with HUVEC it was > 200 µM; in [3] it was > 200 µM. Moreover, the selectivity ratio in [5] was > 2.62. The “Ratio IC50” value in [8] is >2.62.

In the case of `COc1cc(CN(C)Cc2ccc3c(c2)OCO3)cc(OC)c1OC`, the IC50 (with A549 [1]; in the data set on NCI-H1299 [2]; in the data set with NCI-H292; with NCI-H460; with HUVEC; in data set [3]) was > 200 µM throughout.

In the case of `Cl.c1ccc(CNCc2ccc3c(c2)OCO3)cc1`, the IC50 in the data set on A549 [1] is > 200 µM; in the data set on NCI-H1299 [2], 67.2 µM; in the data set on NCI-H292 it was > 200 µM; in the data set on NCI-H460 it was > 200 µM; in the data set on HUVEC, > 200 µM; in [3], > 200 µM. Also, in [5], the selectivity ratio was > 2.98. In data set [8], the “Ratio IC50” value is on record as >2.98.

`COc1ccc(CN(C)Cc2ccc3c(c2)OCO3)cc1OC`: the IC50 (in the data set on A549 [1]; in the data set on NCI-H1299 [2]; in the data set with NCI-H292; with NCI-H460; in the data set with HUVEC; in data set [3]) was > 200 µM throughout.

As for `Cl.Oc1ccc(CNCc2ccc3c(c2)OCO3)cc1O`, the IC50 in the data set with A549 [1] was 112 µM; in the data set with NCI-H1299 [2], > 200 µM; in the data set with NCI-H292, > 200 µM; with NCI-H460, > 200 µM; with HUVEC, > 200 µM; in data set [3], > 200 µM. Also, the selectivity ratio in data set [4] was > 1.78. Besides, the “Ratio IC50” value in data set [7] was >1.78. Further, the inhibition entry in the data set with A549 [12] and with NCI-H1299 [13] was “Dose-dependent effect” in each case. Besides, the Activity in the data set on A549 [14] was 54.3%; with A549 [15], 49.6%; in the data set with A549 [16], 45.9%; in the data set on A549 [17] it was “Dose-dependent effect”; in the data set on NCI-H1299 [20] it was 55.8%; with NCI-H1299 [21], 65%. Also, the Activity is 53.5% in the data set with NCI-H1299 [22]; “Dose-dependent effect” with NCI-H1299 [23]; 17.7% in the data set on NCI-H1299 [24]; 20.4% in the data set with NCI-H1299 [25]; 26.8% in the data set with NCI-H1299 [26]. The result in the data set on A549 [18] and in the data set with A549 [19] was Active.
